Measurements: PubChem BioAssay AID248 (DTP/NCI, 2004)
Values joined by “and” are separate entries in the source; they are usually repeats but may differ in a detail not shown here. Equal entries are not always repeated. Inconclusive results and toxic doses are left out. Rule as the data show it: active = T/C of 150% or more; inactive = T/C below 125%.

System: L1210 leukemia ip in BDF1 mice, survival T/C
Experiment: NCI In Vivo Anticancer Drug Screen. Data for tumor model L1210 Leukemia (intraperitoneal) in B6D2F1 (BDF1) mice
Conditions: endpoint: mean survival time, higher = longer survival
Method in brief: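 In this screen, tumor-bearing mice given compound are compared to those given vehicle, and their survival values are reported as a treated-to-control quotient.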

[1] = dose: 100.0 mg/kg/injection, schedule: Q01DX009 (ip), vehicle: saline
[2] = dose: 100.0 mg/kg/injection, schedule: Q04DX003 (ip), vehicle: saline
[3] = dose: 150.0 mg/kg/injection, schedule: Q04DX003 (ip), vehicle: saline
[4] = dose: 100.0 mg/kg/injection, schedule: Q04DX003 (ip), vehicle: saline with Tween-80
[5] = dose: 200.0 mg/kg/injection, schedule: Q04DX003 (ip), vehicle: saline with Tween-80
[6] = dose: 400.0 mg/kg/injection, schedule: Q04DX003 (ip), vehicle: saline with Tween-80
[7] = dose: 200.0 mg/kg/injection, schedule: Q01DX009 (ip), vehicle: saline
[8] = dose: 200.0 mg/kg/injection, schedule: Q04DX003 (ip), vehicle: saline
[9] = dose: 400.0 mg/kg/injection, schedule: Q01DX009 (ip), vehicle: saline
[10] = dose: 400.0 mg/kg/injection, schedule: Q04DX003 (ip), vehicle: saline
[11] = dose: 100.0 mg/kg/injection, schedule: Q01DX001 (ip), vehicle: saline
[12] = dose: 200.0 mg/kg/injection, schedule: Q01DX001 (ip), vehicle: saline
[13] = dose: 400.0 mg/kg/injection, schedule: Q01DX001 (ip), vehicle: saline
[14] = dose: 100.0 mg/kg/injection, schedule: Q01DX009 (ip), vehicle: Klucel (hydroxypropylcellulose) (HPC)
[15] = dose: 200.0 mg/kg/injection, schedule: Q01DX009 (ip), vehicle: Klucel (hydroxypropylcellulose) (HPC)
[16] = dose: 400.0 mg/kg/injection, schedule: Q01DX009 (ip), vehicle: Klucel (hydroxypropylcellulose) (HPC)
[17] = dose: 100.0 mg/kg/injection, schedule: Q04DX003 (ip), vehicle: Klucel (hydroxypropylcellulose) (HPC)
[18] = dose: 200.0 mg/kg/injection, schedule: Q04DX003 (ip), vehicle: Klucel (hydroxypropylcellulose) (HPC)
[19] = dose: 400.0 mg/kg/injection, schedule: Q04DX003 (ip), vehicle: Klucel (hydroxypropylcellulose) (HPC)
[20] = dose: 100.0 mg/kg/injection, schedule: Q01DX009 (ip), vehicle: saline with Tween-80
[21] = dose: 200.0 mg/kg/injection, schedule: Q01DX009 (ip), vehicle: saline with Tween-80
[22] = dose: 400.0 mg/kg/injection, schedule: Q01DX009 (ip), vehicle: saline with Tween-80

Measured: T/C

C=CCNC(=O)CCl
inactive: dose: 25.0 mg/kg/injection, schedule: Q01DX009 (ip), vehicle: saline 100 % of control | dose: 25.0 mg/kg/injection, schedule: Q04DX003 (ip), vehicle: saline 97 % of control | dose: 50.0 mg/kg/injection, schedule: Q01DX009 (ip), vehicle: saline 99 % of control | dose: 66.0 mg/kg/injection, schedule: Q04DX003 (ip), vehicle: saline 104 % of control | [1] 95 % of control | [2] 106 % of control and 108 % of control | [3] 100 % of control

CCCCN(CCCC)C(=O)NS(=O)(=O)c1ccc(N)cc1
inactive: [4] 95 % of control | [5] 104 % of control | [6] 101 % of control

NC(=O)Nc1cc(NC(N)=O)cc([N+](=O)[O-])c1
inactive: [1] 95 % of control | [2] 110 % of control | [7] 88 % of control | [8] 104 % of control | [9] 93 % of control | [10] 110 % of control

COc1ccc(/C=C2/CN(c3ccc(C(=O)O)cc3)C(=O)C2=O)cc1
inactive: [11] 95 % of control | [12] 98 % of control | [13] 98 % of control

CC1=Nc2ccccc2/C1=C/c1c(O)[nH]c(=O)[nH]c1=O
inactive: dose: 37.5 mg/kg/injection, schedule: Q01DX Z (ip), vehicle: carboxymethylcellulose (CMC) 103 % of control | dose: 75.0 mg/kg/injection, schedule: Q01DX Z (ip), vehicle: carboxymethylcellulose (CMC) 103 % of control | dose: 150.0 mg/kg/injection, schedule: Q01DX Z (ip), vehicle: carboxymethylcellulose (CMC) 100 % of control | dose: 300.0 mg/kg/injection, schedule: Q01DX Z (ip), vehicle: carboxymethylcellulose (CMC) 103 % of control

COC1=C(Cl)C(=O)C(OC)=C(Cl)C1=O
inactive: dose: 5.0 mg/kg/injection, schedule: Q01DX001 (ip), vehicle: saline 97 % of control | dose: 10.0 mg/kg/injection, schedule: Q01DX001 (ip), vehicle: saline 95 % of control | dose: 20.0 mg/kg/injection, schedule: Q01DX001 (ip), vehicle: saline 106 % of control | dose: 40.0 mg/kg/injection, schedule: Q01DX001 (ip), vehicle: saline 101 % of control

Cc1cc2ncn(CO)c2cc1C
inactive: [4] 100 % of control | [5] 94 % of control | [6] 100 % of control

CCCCC(CCCC)NC(C)COC(=O)c1ccc(N)cc1 (stereo not given)
inactive: dose: 75.0 mg/kg/injection, schedule: Q01DX001 (ip), vehicle: carboxymethylcellulose (CMC) 104 % of control | dose: 150.0 mg/kg/injection, schedule: Q01DX001 (ip), vehicle: carboxymethylcellulose (CMC) 100 % of control | dose: 300.0 mg/kg/injection, schedule: Q01DX001 (ip), vehicle: carboxymethylcellulose (CMC) 101 % of control

O=C(Nc1cc(C(F)(F)F)ccc1Cl)c1ccccc1
inactive: [14] 90 % of control | [2] 117 % of control | [15] 108 % of control | [8] 101 % of control | [16] 111 % of control | [10] 103 % of control

COc1ccc(OC)c(NC(=O)Oc2ccc(SC)cc2)c1
inactive: [17] 86 % of control | [18] 88 % of control | [19] 86 % of control

O[Si](O)(c1ccccc1)c1ccccc1
inactive: dose: 100.0 mg/kg/injection, schedule: Q04DX002 (ip), vehicle: saline with Tween-80 92 % of control | dose: 200.0 mg/kg/injection, schedule: Q04DX002 (ip), vehicle: saline with Tween-80 87 % of control | dose: 400.0 mg/kg/injection, schedule: Q04DX002 (ip), vehicle: saline with Tween-80 92 % of control

CCOC(=O)C(CCN(C)Cc1ccccc1)C(=O)OCC
inactive: [14] 97 % of control | [15] 100 % of control | [16] 106 % of control

O=C1c2ccccc2C(=O)N1CNc1ccc(Cl)cn1
inactive: [20] 89 % of control | [21] 87 % of control | [22] 101 % of control

COc1ccccc1NC(=O)Nc1cc(C)ccc1C
inactive: [14] 88 % of control | [17] 90 % of control | [15] 92 % of control | [18] 95 % of control | [16] 88 % of control | [19] 88 % of control

c1cc[n+](CC[n+]2ccccc2)cc1
inactive: [11] 97 % of control | [14] 100 % of control | [1] 101 % of control | [17] 107 % of control | [12] 103 % of control | [15] 103 % of control | [7] 93 % of control | [18] 101 % of control | [13] 94 % of control | [16] 91 % of control | [9] 90 % of control | [19] 98 % of control

Nc1cc2ccccc2c(O)c1O
inactive: dose: 100.0 mg/kg/injection, schedule: Q04DX003 (ip), vehicle: saline sonified 93 % of control | dose: 200.0 mg/kg/injection, schedule: Q04DX003 (ip), vehicle: saline sonified 96 % of control | dose: 400.0 mg/kg/injection, schedule: Q04DX003 (ip), vehicle: saline sonified 90 % of control

Cc1nc(/N=N/c2nc(C)c(C)[nH]2)[nH]c1C
inactive: [14] 95 % of control | [17] 88 % of control | [15] 104 % of control | [18] 93 % of control | [16] 92 % of control | [19] 93 % of control

[O-]/[N+](=C\c1ccccc1)C(c1ccccc1)c1ccccc1
inactive: dose: 75.0 mg/kg/injection, schedule: Q04DX003 (ip), vehicle: saline 97 % of control | [3] 96 % of control | dose: 300.0 mg/kg/injection, schedule: Q04DX003 (ip), vehicle: saline 89 % of control

CN(C)CCN(C)/N=N/c1nc[nH]c1C(N)=O
inactive: dose: 100.0 mg/kg/injection, schedule: Q01DX001 (ip), vehicle: saline with Tween-80 101 % of control | [20] 108 % of control | [4] 108 % of control | dose: 200.0 mg/kg/injection, schedule: Q01DX001 (ip), vehicle: saline with Tween-80 95 % of control | [21] 100 % of control | [5] 113 % of control | dose: 400.0 mg/kg/injection, schedule: Q01DX001 (ip), vehicle: saline with Tween-80 110 % of control | [22] 95 % of control | [6] 106 % of control

COc1cc(CC(=O)O)c(Br)cc1C
inactive: [1] 97 % of control | [4] 101 % of control | [7] 109 % of control | [5] 104 % of control | [9] 92 % of control | [6] 108 % of control

CCOC1CCC2C(CCC(/C=C/c3ccc(O)c4ncccc34)N2C)C1 (stereo not given)
inactive: dose: 21.0 mg/kg/injection, schedule: Q01DX015 (ip), vehicle: saline 113 % of control | dose: 36.0 mg/kg/injection, schedule: Q01DX015 (ip), vehicle: saline 111 % of control | dose: 88.8 mg/kg/injection, schedule: Q01DX001 (ip), vehicle: saline 103 % of control and 116 % of control | [11] 115 % of control | dose: 100.0 mg/kg/injection, schedule: Q01DX015 (ip), vehicle: saline 93 % of control | dose: 133.4 mg/kg/injection, schedule: Q01DX001 (ip), vehicle: saline 108 % of control and 116 % of control and 121 % of control | dose: 300.0 mg/kg/injection, schedule: Q01DX001 (ip), vehicle: saline 116 % of control and 121 % of control

COC(=O)c1c2c(c3c(c1C(=O)OC)CCC3)CCC2
inactive: [11] 98 % of control | [12] 95 % of control | [13] 92 % of control

CCC(N)(C(=O)O)C1CCCCC1 (stereo not given)
inactive: [2] 96 % of control | [8] 94 % of control | [10] 93 % of control

C=CCc1c(C)ccc(C)c1OC
inactive: [14] 97 % of control | [17] 107 % of control | [15] 95 % of control | [18] 102 % of control | [16] 97 % of control | [19] 102 % of control
